This note sets out measurements from patent US4008227A, “Cephalosporins” (Takeda Chemical Industries, Ltd., priority 1973, dated 1977).

In general, MIC refers to the least concentration at which growth counts as inhibited. A high value points to a need for much substance.

Values after ≈ are worked out from the molar mass of the structure shown. Where a name gives a salt, the structure may show the parent alone.

Assay type in all cases: cell-based
For assay [1], the system named is Bucillus subtilis PCI 219. In words: MIC against Bucillus subtilis PCI 219.
For assay [2], the system named is Staphylococcus aureus No. 87. In words: MIC against Staphylococcus aureus No. 87.
For the next assay, the system named is Sarcina lutea PCI 1001. In words: MIC against Sarcina lutea PCI 1001. As to conditions: Micrococcus luteus, PCI1001.
The next assay concerns Proteus vulgaris Eb51. In words: MIC against Proteus vulgaris Eb51.
Assay [3] relates to Staphylococcus aureus 209P. In words: MIC against Staphylococcus aureus 209P.
Another assay concerns Proteus mirabilis Eb59. The experiment in a line: MIC against Proteus mirabilis Eb59.
The next assay deals with Escherichia coli NIHJ. In words: MIC against Escherichia coli NIHJ.
For assay [4], the system named is Staphylococcus aureus 1840. The experiment in a line: MIC against Staphylococcus aureus 1840.
For the next assay, the system named is Klebsiella pneumoniae. In words: MIC against Klebsiella pneumoniae.
The next assay relates to Proteus vulgaris. The experiment in a line: MIC against Proteus vulgaris (strain not given).
Another assay concerns Proteus morganii Eb53. The experiment in a line: MIC against Proteus morganii Eb53. To be noted: Morganella morganii.

Consider `Cc1ccc(SCC2=C(C(=O)O)N3C(=O)C(NC(=O)[C@H](O)c4ccccc4)C3SC2)n[n+]1[O-]` (single isomer, unassigned) [Example 1, 7-[D-(-)-mandelamido]-3-[6'-(3'-methylpyridazinyl)thiomethyl] -3-cephem-4-carboxylic acid 2'-oxide sodium salt], for which the MIC in [1] was under 0.01 µg/mL; in assay [2] it was 5 µg/mL; with Sarcina lutea PCI 1001 it was 0.2 µg/mL; against Proteus vulgaris Eb51, 1 µg/mL; in assay [3] it was 0.1 µg/mL; in the assay with Proteus mirabilis Eb59, 5 µg/mL. This compound came in with an MIC with Escherichia coli NIHJ of 0.5 µg/mL.
For the compound `COc1ccc(SCC2=C(C(=O)O)N3C(=O)C(NC(=O)[C@H](O)c4ccccc4)C3SC2)[n+]([O-])n1` (single isomer, unassigned) [Example 6, 7-[D-(-)-mandelamido]-3-[6'-(3'-methoxypyridazinyl)thiomethyl]-3-cephem-4-carboxylic acid 1'-oxide sodium salt], the MIC is 1.56 µg/mL in [4], under 0.78 µg/mL in assay [3], 1.56 µg/mL with Escherichia coli NIHJ and 1.56 µg/mL against Klebsiella pneumoniae.
For `O=C(O)C1=C(CSc2ccc(Cl)n[n+]2[O-])CSC2C(NC(=O)[C@H](O)c3ccccc3)C(=O)N12` (single isomer, unassigned) [Example 7, 7-[D-(-)-mandelamido]-3-[6'-(3'-chloropyridazinyl)thiomethyl]-3-cephem-4-carboxylic acid 1'-oxide sodium salt], the MIC against Proteus vulgaris was 3.12 µg/mL; in assay [4] it was under 1.56 µg/mL; in [3], under 0.78 µg/mL; in the assay on Escherichia coli NIHJ, 1.56 µg/mL; in the assay with Proteus morganii Eb53 it was 25 µg/mL; against Klebsiella pneumoniae it was under 0.78 µg/mL.
With `Cc1ccc(SCC2=C(C(=O)O)N3C(=O)C(NC(=O)C[n+]4cc([O-])on4)C3SC2)n[n+]1[O-]` (stereo not shown) [Example 11, 7-[2'-(3'-sydnone)acetamido]-3-[6"-(3"-methylpyridazinyl)thiomethyl]-3-cephem-4-carboxylic acid 2"-oxide], the MIC was 1.56 µg/mL (≈ 3.25 µM) in assay [4], under 0.78 µg/mL in assay [3], 1.56 µg/mL (≈ 3.25 µM) with Escherichia coli NIHJ and 1.56 µg/mL (≈ 3.25 µM) against Klebsiella pneumoniae.
Regarding `O=C(C[n+]1cc([O-])on1)NC1C(=O)N2C(C(=O)O)=C(CSc3ccc(Cl)n[n+]3[O-])CSC12` (stereo not shown) [Example 12, 7-[2'-(3'-sydnone)acetamido]-3[6"-(3"-chloropyridazinyl)-thiomethyl]-3-cephem-4-carboxylic acid 1"-oxide sodium salt], the MIC in [4] is 1.56 µg/mL; in assay [3] it was under 0.78 µg/mL; in the assay with Escherichia coli NIHJ, 1.56 µg/mL; against Klebsiella pneumoniae it was 1.56 µg/mL.
Turning to `COc1ccc(SCC2=C(C(=O)O)N3C(=O)C(NC(=O)C[n+]4cc([O-])on4)C3SC2)[n+]([O-])n1` (stereo not shown) [Example 13, 7-[2'-(3'-sydnone)acetamido]-3-[6"-(3"-methoxypyridazinyl)thiomethyl]-3-cephem-4-carboxylic acid 1"-oxide sodium salt], the MIC in assay [4] is 1.56 µg/mL; in [3] it was under 0.78 µg/mL; with Klebsiella pneumoniae, 1.56 µg/mL.
